Results published in patent US20230158031A1, “Treatment of Acute Respiratory Distress Syndrome and Other Disorders Involving Cytokine Storm Using BTK Inhibitors” (Principia Biopharma Inc., priority 2020, published 2023).

Assays:
[1] = system: anti-GBM glomerulonephritis; test: Mouse anti-GBM glomerulonephritis model; format: in vivo; conditions: for kidney pathology: kidney histology after Study Day 10, relative to Dex 1 mg/kg QD
Protocol: The mouse anti-GBM glomerulonephritis model involves antibody mediated autoimmunity, and the model is histologically and mechanistically similar to glomerulonephritis in humans. The model also includes kidney deposition of immune complexes (IC), targeting glomerular basement membrane. The efficacy of Compound (IB) (also referred to as PRN1008) relative to the corticosteroid dexamethasone (Dex) was tested in a mouse anti-GBM glomerulonephritis model according to the design shown in FIG. 1. Briefly, to induce glomerulonephritis, mice were pre-sensitized with sheep IgG/FCA (Study Day −5). Five days later (Study Day 0), the mice received anti-GBM sheep IgG. Treatment with vehicle, Compound (IB), or Dex with various dosage regimes (Compound (IB): 10 mg/kg, 20 mg/kg, or 40 mg/kg QD or 20 mg/kg BID; Dex: 1 mg/kg QD; Vehicle: QD or BID) began at Study Day −1, one day prior to injection with anti-GBM sheep IgG. Treatment continued until Study Day 10, for […] treatment in total. Urine protein analysis was conducted on Study Days −6, −4, −1, 1, 3, 6, 8, and 10. Following Study Day 10, mice serum BUN levels were analyzed as a measure of kidney function, and kidney histology was performed.

[2] = system: BioMAP human primary cell-based co-culture systems; test: BioMAP Diversity PLUS Panel; conditions: FIG. 8
Source text: The BioMAP Diversity Plus Panel (FIG. 7) provides broad phenotypic profiles for pharmaceutically active agents. The panel uses 12 individual BioMAP human primary cell-based co-culture systems to predictively model drug effects on multiple tissues and disease states, providing 148 clinically relevant biomarker readouts. […] The LDLR gene is associated with the low-density lipoprotein receptor, which binds low-density lipoproteins that carry cholesterol in blood. […] Decreased MCP-1, sTNFα, eotaxin-3, ICAM-1, IL-la, and IL-8 and increased sPGE2 is associated with PRN1008's inflammation related activities. Decreased CD38, sIgG, sIL-17A, sIL-2, sIL-6, and M-CSF and increased CD69 are associated with PRN1008's immunomodulatory activities. Decreased MMP-9, uPA, and PAI-I is associated with PRN 1008's tissue remodeling activities. Decreased thrombomodulin (TM) and modulated tissue factor (TF) is associated with PRN1008's hemostasis-related activities. Thus, the BioMAP Diversity Plus Panel data for PRN1008 supports its anti-inflammatory and cytokine inhibition mechanisms.

neutrophils [3] = test: Neutrophil intraluminal crawling following fMLP-mediated arrest in vivo (intravital microscopy, cremaster); conditions: compared to vehicle control; cremaster superfused with fMLP (10 μM), time-lapse microscopy 2 h; FIG. 9A
Source text: Following post-adhesion strengthening, neutrophils undertake Mac-1 (an integrin) dependent migratory activity on the vascular side of the vessel wall prior to transmigration ([…] and Zarbock 2013). Previous studies have highlighted the importance of this step for successful neutrophil recruitment (Phillipson et al. 2006). To investigate the effects of Btk inhibition on this step of the leukocyte recruitment cascade, intraluminal crawling following fMLP (N-formylmethionine-leucyl-phenylalanine)-mediated arrest in vivo was investigated. Using intravital microscopy, intravascular crawling of neutrophils was examined as described previously (Phillipson et al. 2006). Briefly, anti-Gr-1 antibody (clone RB6-8C5), labelled with Alexa Fluor 488 (Molecular Probes, Eugene, Oreg., USA), was injected via the cannulated carotid artery prior to the experiment. Following preparation and exteriorization, the cremaster was superfused with fMLP (10 μM) and time-lapse microscopy was performed for 2 h. The number of adherent cells was determined.

neutrophils [4] = test: Neutrophil recruitment to the necrotic zone following sterile liver injury (heat injury); format: in vivo; conditions: 4 h after heat injury; spinning disc time-lapse microscopy; FIG. 9B
[5] = inflammation related activities

How did the “kidney weight gain (a surrogate for kidney inflammation)” value ([1]; 10, 20 or 40 mg/kg QD or 20 mg/kg BID, FIG. 5) turn out when `CC(C)(C=C(C#N)C(=O)N1CCC[C@@H](n2nc(-c3ccc(Oc4ccccc4)cc3F)c3c(N)ncnc32)C1)N1CCN(C2COC2)CC1` [Compound (IB), 2-[(3R)-3-[4-amino-3-(2-fluoro-4-phenoxy-phenyl)pyrazolo[3,4-d]pyrimidin-1-yl]piperidine-1-carbonyl]-4-methyl-4-[4-(oxetan-3-yl)piperazin-1-yl]pent-2-enenitrile] was run?
Its value is “dose dependent inhibition”.

And the “serum blood urea nitrogen (BUN) levels” value ([1]; 10, 20 or 40 mg/kg QD or 20 mg/kg BID, Study Day -1 to 10, FIG. 2)?
Its value is “dose dependent inhibition”.

What about the severe proteinuria ([1]; 10, 20 or 40 mg/kg QD or 20 mg/kg BID, Study Day -1 to 10, FIG. 3) of the same molecule?
Its severe proteinuria is “dose dependent inhibition”.

What about the kidney pathology ([1]; FIG. 6) of the same molecule?
The kidney pathology was “reduced kidney pathology”.

What about the kidney pathology ([1]; FIG. 6, listed as PRN1008) of the same molecule?
Its kidney pathology is “significantly reduced kidney pathology, superior to a steroid comparator (Dex)”.

What about the “proteinuria during the study” value ([1]; urine protein analysis Study Days -6 to 10, FIG. 4) of the same molecule?
Its value is “reduced proteinuria”.

And the LDLR ([2]; BioMAP Profile)?
Its LDLR is “decreased”.

What about the “anti-proliferative activity, B cells” value ([2]; BioMAP Profile) of the same molecule?
The value was “Anti-proliferative activities”.

What about the “anti-proliferative activity, T cells” value ([2]; BioMAP Profile) of the same molecule?
The value was “Anti-proliferative activities”.

What about the “anti-proliferative activity, coronary artery smooth muscle cells” value ([2]; BioMAP Profile) of the same molecule?
Its value is “Anti-proliferative activities”.

What about the “anti-proliferative activity, endothelial cells” value ([2]; BioMAP Profile) of the same molecule?
The value was “Anti-proliferative activities”.

What about the “anti-proliferative activity, fibroblasts” value ([2]; BioMAP Profile) of the same molecule?
Its value is “Anti-proliferative activities”.

And the “thrombomodulin (TM)” value ([2]; hemostasis-related activities)?
The value was “Decreased”.

And the “tissue factor (TF)” value ([2]; hemostasis-related activities)?
The value was “modulated”.

And the CD38 ([2]; immunomodulatory activities)?
Its CD38 is “Decreased”.

And the CD69 ([2]; immunomodulatory activities)?
The CD69 was “increased”.

What about the M-CSF ([2]; immunomodulatory activities) of the same molecule?
The M-CSF was “Decreased”.

And the sIL-2 ([2]; immunomodulatory activities)?
Its sIL-2 is “Decreased”.

What about the sIL-6 ([2]; immunomodulatory activities) of the same molecule?
Its sIL-6 is “Decreased”.

What about the sIL-17A ([2]; immunomodulatory activities) of the same molecule?
The sIL-17A was “Decreased”.

What about the sIgG ([2]; immunomodulatory activities) of the same molecule?
Its sIgG is “Decreased”.

What about the ICAM-1 [2, 5] of the same molecule?
The ICAM-1 was “Decreased”.

And the IL-8 [2, 5]?
The IL-8 was “Decreased”.

And the IL-la [2, 5]?
The IL-la was “Decreased”.

What about the MCP-1 [2, 5] of the same molecule?
The MCP-1 was “Decreased”.

And the eotaxin-3 [2, 5]?
The eotaxin-3 was “Decreased”.

What about the sPGE2 [2, 5] of the same molecule?
Its sPGE2 is “increased”.

And the sTNFα [2, 5]?
The sTNFα was “Decreased”.

And the MMP-9 ([2]; tissue remodeling activities)?
The MMP-9 was “Decreased”.

And the PAI-I ([2]; tissue remodeling activities)?
Its PAI-I is “Decreased”.

And the uPA ([2]; tissue remodeling activities)?
Its uPA is “Decreased”.

What does the source list for `CC(C)(C)C=C(C#N)C(=O)N1CCC[C@@H](n2nc(-c3ccc(Oc4ccccc4)cc3F)c3c(N)ncnc32)C1` [Compound (IA), (R)-2-(3-(4-amino-3-(2-fluoro-4-phenoxyphenyl)-1H-pyrazolo[3,4-d]pyrimidin-1-yl)piperidine-1-carbonyl)-4,4-dimethylpent-2-enenitrile]?
migratory activity of neutrophils (arrested cells that crawled) (neutrophils [3]): severely decreased; neutrophil recruitment following sterile liver injury (neutrophils [4]): abolish neutrophil recruitment
